Where “and” joins values, the source holds several entries; their conditions need not be identical. Equal values may be shown once. Read-outs that look alike come from different tables or passages of the source.
What was measured:
[1] = target: T1, Recombinant human PDE7A/HCP1 protein (Homo sapiens, UniProt Q13946); assay: In vitro enzymatic activity assay (PDE-Glo Phosphodiesterase Assay), PDE7A; type: biochemical
T1 construct: purchased Abcam ab125786
Procedure: (§1) Penicillin–Streptomycin solution (10,000 U/mL Penicillin, 10,000 μg/mL Streptomycin; Cat #C100C5) was obtained from NCM Biotech (Suzhou, China). Fetal Bovine Serum (FBS; Cat #BC-SE-FBS01) and phosphate-buffered saline (PBS; Cat #10010001) were obtained from Sbjbio (Nanjing, China). Trypsin-EDTA Solution (Cat #BL512A) was obtained from Biosharp (Hefei, China). DMEM medium (High Glucose; Cat #XB01-01) was obtained from VivaCell (Shanghai, China). Opti-MEM medium (Cat #Lvn1012A) was obtained from Livning (Beijing, China). […] The Lipofectamine™ 2000 Transfection Kit (Cat #11668500) was obtained from Thermo Fisher Scientific (Waltham, MA, USA). The pGloSensor™-22F cAMP Plasmid map (Cat #E2301), pGloSensor™-42F cGMP Plasmid map (Cat #CS177001), and PDE-Glo™ Phosphodiesterase Assay (Cat #V1361) were purchased from Promega (Madison, WI, USA). Recombinant human PDE4B protein (Cat #ab125582) and recombinant human PDE7A/HCP1 protein (Cat #ab125786) were obtained from Abcam (Cambridgeshire, UK). Compounds 1–7 were provided by Guoqiang Li’s research group (School of Medicine and Pharmacy, Ocean University, Qingdao, China).
(§2) The inhibitory activities of the compounds against PDE4B and PDE7A were determined according to the procedures required for the PDE-Glo™ Phosphodiesterase Assay.
(§3) Data analysis was carried out using Microsoft Excel and GraphPad Prism 8 software (version 8.0.2 for Windows, GraphPad Software, San Diego, CA, USA). The data in the luminescence signal from the replica well were averaged to produce a response vs. time curve. The cell screening results of the compounds were expressed as percentages (the difference in luminescence signals between the experimental group and the blank control group/blank control group luminescence signal × 100%). For the measurement of IC50, at least seven concentrations of chemicals were used, and IC50 values were calculated using the nonlinear method.

[2] = target: T2, Recombinant human PDE4B protein (Homo sapiens, UniProt Q07343); assay: In vitro enzymatic activity assay (PDE-Glo Phosphodiesterase Assay), PDE4B; type: biochemical
T2 construct: purchased Abcam ab125582
T2 sequence (Q07343 whole entry): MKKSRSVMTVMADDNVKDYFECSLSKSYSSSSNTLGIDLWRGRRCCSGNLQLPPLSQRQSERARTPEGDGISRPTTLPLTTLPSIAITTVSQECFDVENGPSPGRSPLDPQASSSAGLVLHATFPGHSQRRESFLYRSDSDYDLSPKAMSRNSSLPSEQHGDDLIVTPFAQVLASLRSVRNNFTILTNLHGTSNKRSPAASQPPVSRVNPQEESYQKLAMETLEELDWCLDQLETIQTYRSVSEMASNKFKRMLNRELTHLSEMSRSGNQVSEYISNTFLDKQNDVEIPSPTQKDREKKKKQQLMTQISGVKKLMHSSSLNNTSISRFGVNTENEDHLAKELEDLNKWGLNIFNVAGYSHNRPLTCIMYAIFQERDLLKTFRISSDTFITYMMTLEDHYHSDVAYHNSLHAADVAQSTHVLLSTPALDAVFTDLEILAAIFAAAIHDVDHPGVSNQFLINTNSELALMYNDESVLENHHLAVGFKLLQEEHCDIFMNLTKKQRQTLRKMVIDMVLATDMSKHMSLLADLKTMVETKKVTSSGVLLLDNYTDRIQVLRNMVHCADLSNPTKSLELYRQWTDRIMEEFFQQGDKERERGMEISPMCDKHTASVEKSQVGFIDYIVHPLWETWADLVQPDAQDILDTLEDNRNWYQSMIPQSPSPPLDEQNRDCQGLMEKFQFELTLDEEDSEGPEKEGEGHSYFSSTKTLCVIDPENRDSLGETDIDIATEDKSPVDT
Procedure: as §1, with “UK).” for “UK). Compounds 1–7 were provided by Guoqiang Li’s research group (School of Medicine and Pharmacy, Ocean University, Qingdao, China).”
as §2
Data analysis was carried out using Microsoft Excel and GraphPad Prism 8 software (version 8.0.2 for Windows, GraphPad Software, San Diego, CA, USA). The data in the luminescence signal from the replica well were averaged to produce a response vs. time curve. […] For the measurement of IC50, at least seven concentrations of chemicals were used, and IC50 values were calculated using the nonlinear method.

cAMP-related PDEs = assay: GloSensor live-cell screening model targeting cAMP (pGloSensor-22F cAMP plasmid in HEK293T cells, forskolin-stimulated); type: cell-based, human; details: for Luminescence Signal (%): cAMP cell screening model, (experimental group - blank control)/blank control luminescence x 100%, compound concentration not given; for IC50: Homo sapiens, HEK-293T, HEK293T cells, 5 μM forskolin, n = 3, read-out: IC50 detected using the cell screening model targeting cAMP
Procedure: The HEK293T human embryonic kidney cell line was purchased from SunnCell (Wuhan, China). After recovery, HEK293T cells were passaged 3–4 times a week and cultured at 37 °C in 5% CO2. The culture medium consisted of DMEM, 10% FBS, and 1% antibiotic solution.
Cells were grown to a density of 70–80% in a 6 cm culture dish, the original culture medium was discarded, and 3 mL Opti-MEM was added. A total of 5 μL lipo2000 transfection reagents and 7 μL plasmids were each diluted to 50 μL with Opti-MEM. The above two solutions were mixed, allowed to stand for 20 min, and then added to the cell culture medium. They were then incubated with 5% CO2 at 37 °C for 5 h. The original culture medium was discarded and replaced with the DMEM culture medium. After overnight cultivation at 37 °C and 5% CO2, the transfected cells were transferred to a 96-well plate and cultured under the same conditions for 9 h.
The original culture medium was replaced with 80 μL/well loaded culture medium (containing 2 mM D-Luciferin protein) and incubated at room temperature (20–23 °C) in the dark for 2 h. A total of 10 μL/well with a concentration of 50 μM forskolin (for cAMP testing) or 250 μM SNAP (for cGMP testing) was added to the sample culture medium to increase the level of background cyclic nucleotides in the cells. According to the detection requirements, a certain concentration of analytes was sequentially added to different wells, and the luminescence signal was measured using the SynergyNeo2 (Agilent, Santa Clara, CA, USA) instrument at time 0. The measurement was conducted every 5 min, and the longest duration was based on the start of the luminescence signal’s decline.
as §3
Considering the detection efficiency, the possible toxicity of the reagent to cells, and the Z-factor, the optimal concentration of the AC agonist forskolin required for the cell screening model targeting cAMP was set at 5 μM.
To determine the shortest detection time for the two cell models, the luminescence signal–time curve was established. Based on the variations in luminescence detection values over time from two sets of data (Figure 2), it was determined that the detection time for cell screening models targeting cAMP should not be less than 35 min, while the detection time for cell screening models targeting cGMP should not be less than 30 min.

cGMP-related PDEs = assay: GloSensor live-cell screening model targeting cGMP (pGloSensor-42F cGMP plasmid in HEK293T cells, SNAP-stimulated); type: cell-based; details: Homo sapiens, HEK-293T, read-out: IC50 detected using the cell screening model targeting cGMP
Procedure: The HEK293T human embryonic kidney cell line was purchased from SunnCell (Wuhan, China). After recovery, HEK293T cells were passaged 3–4 times a week and cultured at 37 °C in 5% CO2. The culture medium consisted of DMEM, 10% FBS, and 1% antibiotic solution. Cells were grown to a density of 70–80% in a 6 cm culture dish, the original culture medium was discarded, and 3 mL Opti-MEM was added. A total of 5 μL lipo2000 transfection reagents and 7 μL plasmids were each diluted to 50 μL with Opti-MEM. The above two solutions were mixed, allowed to stand for 20 min, and then added to the cell culture medium. They were then incubated with 5% CO2 at 37 °C for 5 h. The original culture medium was discarded and replaced with the DMEM culture medium. After overnight cultivation at 37 °C and 5% CO2, the transfected cells were transferred to a 96-well plate and cultured under the same conditions for 9 h. The original culture medium was replaced with 80 μL/well loaded culture medium (containing 2 mM D-Luciferin protein) and incubated at room temperature (20–23 °C) in the dark for 2 h. A total of 10 μL/well with a concentration of 50 μM forskolin (for cAMP testing) or 250 μM SNAP (for cGMP testing) was added to the sample culture medium to increase the level of background cyclic nucleotides in the cells. According to the detection requirements, a certain concentration of analytes was sequentially added to different wells, and the luminescence signal was measured using the SynergyNeo2 (Agilent, Santa Clara, CA, USA) instrument at time 0. The measurement was conducted every 5 min, and the longest duration was based on the start of the luminescence signal’s decline. Data analysis was carried out using Microsoft Excel and GraphPad Prism 8 software (version 8.0.2 for Windows, GraphPad Software, San Diego, CA, USA). The data in the luminescence signal from the replica well were averaged to produce a response vs. time curve. The cell screening results of the compounds were expressed as percentages (the difference in luminescence signals between the experimental group and the blank control group/blank control group luminescence signal × 100%). For the measurement of IC50, at least seven concentrations of chemicals were used, and IC50 values were calculated using the nonlinear method. […] Similar to the cell screening models targeting cAMP, the cell screening models targeting cGMP could not effectively detect the ability of sildenafil to increase intracellular cGMP levels when the GC agonist SNAP was not present or was at low concentrations. […] To determine the shortest detection time for the two cell models, the luminescence signal–time curve was established.

PDE5 = tested on: PDE5; parameters: method as in PMID 12646997; details: cited from earlier work
[3] = HEK293T cells, 25 μM SNAP, n = 3

T1 sequence (Q13946 whole entry): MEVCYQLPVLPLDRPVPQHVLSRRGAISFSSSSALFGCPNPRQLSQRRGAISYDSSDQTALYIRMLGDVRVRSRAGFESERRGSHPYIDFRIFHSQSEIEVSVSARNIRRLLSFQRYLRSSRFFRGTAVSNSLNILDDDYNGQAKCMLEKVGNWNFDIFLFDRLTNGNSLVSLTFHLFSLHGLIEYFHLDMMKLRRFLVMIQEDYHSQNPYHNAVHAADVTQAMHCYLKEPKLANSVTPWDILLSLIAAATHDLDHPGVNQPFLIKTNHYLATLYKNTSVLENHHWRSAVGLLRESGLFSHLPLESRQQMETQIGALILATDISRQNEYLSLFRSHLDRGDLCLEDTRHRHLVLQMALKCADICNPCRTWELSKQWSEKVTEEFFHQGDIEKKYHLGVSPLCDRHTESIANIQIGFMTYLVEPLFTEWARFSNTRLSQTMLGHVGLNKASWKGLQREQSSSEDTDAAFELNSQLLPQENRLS

Row | SMILES | IC50 [1] | IC50 [2] [µM] | Luminescence Signal (%) (cAMP-related PDEs) | other results
1 | Clc1cccc(Cl)c1C=Cc1ccccn1 [Compound 1, 2-[2-(2,6-Dichlorophenyl)-ethenyl] pyridine] | 28.7 µM | 63.7 | 109 | 
2 | CC(C)Cn1c(=O)n(C)c(=O)c2[nH]cnc21 [IBMX, Isobutylmethylxanthine, reference compound] |  |  |  | IC50 (cAMP-related PDEs): 28.6 µM; IC50 (cGMP-related PDEs; [3]): 184 µM
3 | CCCc1nn(C)c2c(=O)[nH]c(-c3cc(S(=O)(=O)N4CCN(C)CC4)ccc3OCC)nc12 [Sildenafil, sildenafil] |  |  |  | IC50 (cGMP-related PDEs; [3]): ~0.1 µM
4 | COc1ccccc1C=Cc1ccc(N(C)C)cc1 [Compound 5, 4-[2-(2-Methoxyphenyl)-ethenyl]-N,N-dimethylbenzenamine] | 2.1 µM | 14.1 | 55 | 
5 | COc1cc(C=Cc2ccccn2)cc(OC)c1OC [Compound 2, 2-[2-(3,4,5-Trimethoxyphenyl)-ethenyl] pyridine] | 47.4 µM | 25.5 | 51 | 
6 | Cc1ccc([N+](=O)[O-])cc1S(=O)(=O)N(C)C [BRL-50481, reference compound] | 0.2 µM |  |  | 
7 | COc1cc(C=Cc2ccncc2)cc(OC)c1OC [Compound 4, 4-[2-(3,4,5-Trimethoxyphenyl)-ethenyl] pyridine] | 8.6 µM | 12.6 | 77 | 
8 | COc1cc2c(cc1OC)-c1c(OC)c(OC)cc3c1[C@H](C2)N(C)CC3 [Glaucine, reference compound] |  |  |  | IC50 (cAMP-related PDEs): 59.8 µM
9 | COc1cc(C=Cc2cccnc2)cc(OC)c1OC [Compound 3, 3-[2-(3,4,5-Trimethoxyphenyl)-ethenyl] pyridine] | 4.5 µM | 5.7 | 87 | 
10 | CC(=O)O[C@@H]1C(=O)CCC2=CCC[C@H](C)[C@@]2(C)/C=C\1C [Compound 6, 4-acetoxy-2,8-neolemnadien-5-one] | 36.2 µM |  | 51 | PDE7A inhibitory activity (in words) [1]: weak
11 | Cc1nc(-c2cnn(C)c2-c2ccc(C(F)(F)F)cn2)c2c(N3CCC3)ncnn12 [PF-999, PF-05180999, reference compound] |  |  |  | IC50 (cAMP-related PDEs): 142 µM; IC50 (cGMP-related PDEs; [3]): 45.6 µM
12 | COc1ccc(C2CNC(=O)C2)cc1OC1CCCC1 (stereo not shown) [Rolipram, rolipram, reference compound] |  |  | 300 | IC50 (cAMP-related PDEs): ~0.1 µM; difference in luminescence signal values between rolipram and PBS groups (cAMP-related PDEs; rolipram 5 μM, forskolin 5 μM, cAMP cell model): over 1000
13 | Cc1c(O)c(C)c2c(c1O)C(=O)O[C@](C)(O)[C@H]2C [Compound 7, (3S,4S)-sclerotinin A] | ~5.6 µM and 5.6 µM | 28.2 | 53 | PDE4B inhibitory activity (in words) [2]: weak
14 | COc1ccc(-c2oc3c(CC=C(C)C)c(O[C@@H]4O[C@H](CO)[C@@H](O)[C@H](O)[C@H]4O)cc(O)c3c(=O)c2O[C@@H]2O[C@@H](C)[C@H](O)[C@@H](O)[C@H]2O)cc1 [Icariin] |  |  |  | IC50 (cGMP-related PDEs): 642 µM; IC50 (PDE5): 0.432 µM

From article PMC11117652, “The Construction and Application of a New Screening Method for Phosphodiesterase Inhibitors” (Biosensors, 2024)
